22 molecules from PubChem BioAssay AID248 (DTP/NCI, 2004) can be followed below.

Where “and” joins values, the source holds several entries; their conditions need not be identical. Equal entries are not always repeated. Toxic doses and inconclusive results are not listed.

The test system of this assay is L1210 leukemia ip in BDF1 mice, survival T/C. The assay is described as follows: NCI In Vivo Anticancer Drug Screen. Data for tumor model L1210 Leukemia (intraperitoneal) in B6D2F1 (BDF1) mice. The conditions noted are these: endpoint: mean survival time, higher = longer survival. An outline of the steps:
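Tumor cells were implanted, animals were treated, and survival was followed. The result divides the treated measurement by the vehicle-control measurement.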

Setting [1] is: dose: 100.0 mg/kg/injection, schedule: Q01DX009 (ip), vehicle: saline with Tween-80.
The mark [2] stands for this setting: dose: 200.0 mg/kg/injection, schedule: Q01DX009 (ip), vehicle: saline with Tween-80.
The mark [3] stands for this setting: dose: 400.0 mg/kg/injection, schedule: Q01DX009 (ip), vehicle: saline with Tween-80.
The mark [4] stands for this setting: dose: 100.0 mg/kg/injection, schedule: Q04DX003 (ip), vehicle: Klucel (hydroxypropylcellulose) (HPC).
Where [5] appears, read: dose: 200.0 mg/kg/injection, schedule: Q04DX003 (ip), vehicle: Klucel (hydroxypropylcellulose) (HPC).
Setting [6] is: dose: 400.0 mg/kg/injection, schedule: Q04DX003 (ip), vehicle: Klucel (hydroxypropylcellulose) (HPC).
Setting [7] is: dose: 25.0 mg/kg/injection, schedule: Q04DX003 (ip), vehicle: saline with Tween-80.
[8] abbreviates: dose: 100.0 mg/kg/injection, schedule: Q04DX003 (ip), vehicle: saline with Tween-80.
The mark [9] stands for this setting: dose: 50.0 mg/kg/injection, schedule: Q01DX009 (ip), vehicle: Klucel (hydroxypropylcellulose) (HPC).
The mark [10] stands for this setting: dose: 100.0 mg/kg/injection, schedule: Q01DX009 (ip), vehicle: Klucel (hydroxypropylcellulose) (HPC).
Where [11] appears, read: dose: 100.0 mg/kg/injection, schedule: Q04DX003 (ip), vehicle: saline.
Setting [12] is: dose: 200.0 mg/kg/injection, schedule: Q04DX003 (ip), vehicle: saline.
Where [13] appears, read: dose: 50.0 mg/kg/injection, schedule: Q01DX009 (ip), vehicle: saline.
Where [14] appears, read: dose: 100.0 mg/kg/injection, schedule: Q01DX009 (ip), vehicle: saline.
The mark [15] stands for this setting: dose: 100.0 mg/kg/injection, schedule: Q01DX001 (ip), vehicle: steriod suspending solution.
[16] abbreviates: dose: 200.0 mg/kg/injection, schedule: Q01DX001 (ip), vehicle: steriod suspending solution.

Regarding `c1ccc(C2CCCCO2)cc1` (configuration not stated), the T/C under setting [1] is 94 % of control, the T/C under setting [2] was 100 % of control and the T/C under setting [3] was 88 % of control.
Turning to `[O-]/[N+](=C\c1ccccc1)C(c1ccccc1)c1ccccc1`, the T/C by setting is: (dose: 75.0 mg/kg/injection, schedule: Q04DX003 (ip), vehicle: saline) 97 % of control; (dose: 150.0 mg/kg/injection, schedule: Q04DX003 (ip), vehicle: saline) 96 % of control; (dose: 300.0 mg/kg/injection, schedule: Q04DX003 (ip), vehicle: saline) 89 % of control.
Take `O=C1c2ccccc2C(=O)N1CNc1ccc(Cl)cn1`: the T/C is, setting by setting: under setting [1], 89 % of control; under setting [2], 87 % of control; under setting [3], 101 % of control.
On to `CCOC(=O)C1(NC(=O)N(CCCl)N=O)CCCCC1`, for which the T/C (dose: 16.0 mg/kg/injection, schedule: Q01DX001 (ip), vehicle: other) was 97 % of control; the T/C (dose: 31.0 mg/kg/injection, schedule: Q01DX001 (ip), vehicle: other) is 106 % of control; the T/C (dose: 125.0 mg/kg/injection, schedule: Q01DX001 (ip), vehicle: other) is 188 % of control and 220 % of control; the T/C (dose: 250.0 mg/kg/injection, schedule: Q01DX001 (ip), vehicle: other) is 296 % of control and 317 % of control; the T/C (dose: 375.0 mg/kg/injection, schedule: Q01DX001 (ip), vehicle: other) was 216 % of control; the T/C (dose: 500.0 mg/kg/injection, schedule: Q01DX001 (ip), vehicle: other) was 194 % of control and 322 % of control. Also, the T/C is 331 % of control (dose: 750.0 mg/kg/injection, schedule: Q01DX001 (ip), vehicle: other) and 295 % of control (dose: 1000.0 mg/kg/injection, schedule: Q01DX001 (ip), vehicle: other).
Consider `CCOC(=O)c1cnc(SC)nc1Nc1ccccc1I`, for which the T/C is 101 % of control under setting [4], 97 % of control under setting [5] and 103 % of control under setting [6].
In the case of `CCC(COC(C)=O)(COC(C)=O)[N+](=O)[O-]`, the T/C under setting [4] is 103 % of control, the T/C under setting [5] was 98 % of control and the T/C under setting [6] is 101 % of control.
As to `NC(=O)N/N=C/c1cccs1`, the T/C under setting [7] is 95 % of control; the T/C (dose: 50.0 mg/kg/injection, schedule: Q04DX003 (ip), vehicle: saline with Tween-80) was 103 % of control; the T/C under setting [8] was 106 % of control.
`O=C1c2cccc(Cl)c2C(=O)c2c(NCCO)cccc21`: the T/C was 96 % of control (dose: 100.0 mg/kg/injection, schedule: Q01DX001 (ip), vehicle: Klucel (hydroxypropylcellulose) (HPC)); 101 % of control (dose: 200.0 mg/kg/injection, schedule: Q01DX001 (ip), vehicle: Klucel (hydroxypropylcellulose) (HPC)); 97 % of control (dose: 400.0 mg/kg/injection, schedule: Q01DX001 (ip), vehicle: Klucel (hydroxypropylcellulose) (HPC)).
With `C1=Cc2ccccc2/C1=C/c1cccc(/C=C2\C=Cc3ccccc32)c1`, the T/C is 101 % of control (dose: 6.25 mg/kg/injection, schedule: Q01DX009 (ip), vehicle: saline with Tween-80); 97 % of control (dose: 12.5 mg/kg/injection, schedule: Q01DX009 (ip), vehicle: saline with Tween-80); 100 % of control (dose: 12.5 mg/kg/injection, schedule: Q04DX003 (ip), vehicle: saline with Tween-80); 97 % of control (dose: 25.0 mg/kg/injection, schedule: Q01DX009 (ip), vehicle: saline with Tween-80); 95 % of control under setting [7].
With `O=C1C2C3SC(c4nc5ccccc5cc43)C2C(=O)N1c1ccccc1` (configuration not stated), the T/C (dose: 400.0 mg/kg/injection, schedule: Q01DX001 (ip), vehicle: saline with Tween-80) was 91 % of control.
With `CCCCNC(C)(C)C(=O)c1ccco1`, the T/C was 100 % of control (dose: 50.0 mg/kg/injection, schedule: Q01DX009 (ip), vehicle: saline with Tween-80); 97 % of control under setting [1]; 111 % of control under setting [2].
`O=C(CCl)NC(=O)CCl`: the T/C runs as follows: (dose: 15.6 mg/kg/injection, schedule: Q01DX010 (ip), vehicle: other) 97 % of control; (dose: 31.3 mg/kg/injection, schedule: Q01DX009 (ip), vehicle: other) 90 % of control; (dose: 62.5 mg/kg/injection, schedule: Q01DX009 (ip), vehicle: other) 92 % of control; (dose: 100.0 mg/kg/injection, schedule: Q01DX001 (ip), vehicle: saline) 103 % of control; under setting [8], 103 % of control; (dose: 125.0 mg/kg/injection, schedule: Q01DX010 (ip), vehicle: other) 95 % of control. The T/C reads like this: (dose: 200.0 mg/kg/injection, schedule: Q01DX001 (ip), vehicle: saline) 100 % of control; (dose: 200.0 mg/kg/injection, schedule: Q04DX003 (ip), vehicle: saline with Tween-80) 93 % of control.
Regarding `c1ccc(-n2cc(-c3nc(N4CC4)nc(N4CC4)n3)c3ccccc32)cc1`, the T/C is, setting by setting: under setting [9], 121 % of control; under setting [10], 103 % of control; under setting [4], 112 % of control; under setting [5], 118 % of control.
For the molecule `CCOC(=O)c1c(C)oc(=O)c(Br)c1C`, the T/C is 97 % of control under setting [11]; 100 % of control under setting [12]; 94 % of control (dose: 400.0 mg/kg/injection, schedule: Q04DX003 (ip), vehicle: saline).
Take `S=C(NCc1ccccc1)NC1CCCCC1`: the T/C is 97 % of control (dose: 25.0 mg/kg/injection, schedule: Q01DX009 (ip), vehicle: saline); 100 % of control under setting [13]; 92 % of control (dose: 50.0 mg/kg/injection, schedule: Q04DX003 (ip), vehicle: saline); 96 % of control under setting [14]; 102 % of control under setting [11].
In the case of `NC(=O)NC=O`, the T/C is 96 % of control under setting [9]; 101 % of control (dose: 50.0 mg/kg/injection, schedule: Q04DX003 (ip), vehicle: Klucel (hydroxypropylcellulose) (HPC)); 102 % of control under setting [10]; 105 % of control under setting [4]; 96 % of control (dose: 200.0 mg/kg/injection, schedule: Q01DX009 (ip), vehicle: Klucel (hydroxypropylcellulose) (HPC)); 115 % of control under setting [5].
Consider `S=C([S][Sn]([S]C(=S)N(c1ccccc1)c1ccccc1)([c]1ccccc1)[c]1ccccc1)N(c1ccccc1)c1ccccc1`, for which the T/C was 93 % of control under setting [15] and 112 % of control under setting [16].
With `CC1(O)C(c2ccccc2)=Nc2ccccc21` (configuration not stated), the T/C was 95 % of control (dose: 100.0 mg/kg/injection, schedule: Q04DX002 (ip), vehicle: saline with Tween-80); 113 % of control (dose: 200.0 mg/kg/injection, schedule: Q04DX002 (ip), vehicle: saline with Tween-80); 92 % of control (dose: 400.0 mg/kg/injection, schedule: Q04DX002 (ip), vehicle: saline with Tween-80).
With `O=[N+]([O-])c1cccc(-n2cccc2)c1`, the T/C by setting is: under setting [15], 101 % of control; under setting [16], 103 % of control; (dose: 400.0 mg/kg/injection, schedule: Q01DX001 (ip), vehicle: steriod suspending solution) 97 % of control.
As to `O=C(O)C1CCSS1` (configuration not stated), the T/C under setting [13] is 89 % of control, the T/C under setting [14] is 92 % of control, the T/C under setting [11] was 101 % of control and the T/C under setting [12] is 104 % of control.
For `CC(=O)Nc1ccc([N+](=O)[O-])cc1`, the T/C (dose: 100.0 mg/kg/injection, schedule: Q04DX002 (ip), vehicle: gum acacia) was 98 % of control; the T/C (dose: 200.0 mg/kg/injection, schedule: Q04DX002 (ip), vehicle: gum acacia) was 88 % of control; the T/C (dose: 400.0 mg/kg/injection, schedule: Q04DX002 (ip), vehicle: gum acacia) was 107 % of control.
As to `O=S(=O)(c1ccccc1)C1C2C=CC(O2)C1S(=O)(=O)c1ccccc1` (configuration not stated), the T/C runs as follows: (dose: 100.0 mg/kg/injection, schedule: Q04DX002 (ip), vehicle: Klucel (hydroxypropylcellulose) (HPC)) 91 % of control; (dose: 200.0 mg/kg/injection, schedule: Q04DX002 (ip), vehicle: Klucel (hydroxypropylcellulose) (HPC)) 93 % of control; (dose: 400.0 mg/kg/injection, schedule: Q04DX002 (ip), vehicle: Klucel (hydroxypropylcellulose) (HPC)) 93 % of control.
